From patent US12582605B2, “Extended release formulations of cannabinoids” (Glatt GmbH, priority 2018, dated 2026)

How the values were obtained:
[1] = oral administration; cited from earlier work
[2] = pH values ranging from 1.2 to 7.0; cited from earlier work
[3] = Dissolution test, release of probucol (USP Type II paddle, purified water); assay type: physicochemical; settings: after / through 24 hours
Method: (§1) A dissolution test was conducted on the compositions using purified water, USP, as the dissolution medium in a dissolution volume of 900 ml. A USP Type II paddle apparatus was used to mix the dissolution medium at a paddle speed of 75 rpm. The bath temperature was 37° C., and a 10-μm porous filter was used to sample aliquots.
as §1, with “Example Compositions D-H” for “the compositions”

Compound: CCCCCc1cc(O)c2c(c1)OC(C)(C)[C@@H]1CCC(C)=C[C@@H]21 [THC, Δ9-tetrahydrocannabinol]
- duration of action [1]: 2 to 4 h
- duration of psychoactive action [1]: 4 to 6 h

Compound: CCCCCCC(C)(C)c1cc(O)c2c(c1)OC(C)(C)C1CCC(=O)CC21 (stereo not shown) [nabilone]
- solubility in aqueous media [2]: less than 0.5 mg/L

Compound: Tween® 80
- drug release (probucol) [3]: 88 % w/w
